# Like-named read-outs stand apart in the source and are kept apart here.
# Assays:
# xanthine oxidase = xanthine oxidase (Homo sapiens, UniProt P47989); test: Action of the derivatives on xanthine oxidase; format: biochemical; settings: for inhibition at 100 µM: read-out: % inhibition 100 μM; for inhibition at 500 µM: read-out: % inhibition 500 μM
# Method: Action of the derivatives on xanthine oxidase:
# (Free Radical Biology & Medicine, Vol 20, No 1, pp.35-43, 1996)
# […] of xanthine 20 mM in soda 0.1N and […] of the test product in phosphate buffer at pH 7.4 were placed in a final volume of 2 ml. Reaction is started by adding […] of solution of xanthine oxidase at 0.56 U/ml. Formation of […] is monitored by UV spectroscopy at 290 nm. Allopurinol is a reference inhibitor.
# [1] = Chemical test of capture of OH• radicals (deoxyribose competition); format: biochemical; settings: rate constant of reaction of the competitor with OH•, competition with 2-deoxyribose, UV at 532 nm
# Method: A) Chemical test of capture of OH^• radicals:
# (Free Rad. Res. Comms., Vol. 14, Nos. 5-6, pp. 363-372)
# […] of buffer (30 mM Na2HPO4.7H2O, 40 mM NaCl, 0.1 mM EDTA), 125 ml of deoxyribose at 2.10^−3 mM and 125 ml of 4-times concentrated solution of radical inhibitor (final concentration from 0 to 0.5 mM) were placed in glass haemolysis tubes cooled on an ice bath. […] of FeSO4 at 10^−3 mM (in water) is added at time 0. After 15 min of incubation the reaction is stopped with 250 ml of trichloroacetic acid at 3%, to which is added 250 ml of solution of thiobarbituric acid at 1.5% (in water). The tubes are kept at 100° C. for 10 min then cooled for detection with UV at 532 nm. The linear relation A0/A=1+ks/dkr [(competitor)/(2-deoxyribose)] was used, where A0 and A denote the absorbances in the absence and in the presence of competitor, ks is the rate constant of reaction of the competitor with OH• and kdr=1.9*10^9 M^−1 sec^−1 is the rate constant of reaction of 2-deoxyribose with OH•. Thus ks is equal to the gradient of the straight line A0/A f((competitor)/(2-deoxyribose)) multiplied by kdr.
# astrocytes = test: Recapture of glutamate by cultures of astrocytes, radicals generated by xanthine/xanthine oxidase (X/XO); format: cell-based, rats
# Method: B) Procedure with cultures of astrocytes and generation of radicals by the xanthine/xanthine oxidase (X/XO) pair
# 400 μl of D-lysine at 25 μg/ml (9 ml of D-lysine at 100 μg per ml of borate buffer (0.1M pH 8.4)+27 ml of water) is placed in each well of 24-well culture plates. The wells are left in the stove (5% CO2, 37° C.) over night. Each well is rinsed with 2 times 750 μl of Hanks before receiving the culture medium. 3 lateral demi cortices are taken from rats aged 1 to 2 days. (The hippocampus, the striatum and the meninges are removed). The demi cortices are placed in 2 ml of trypsin-EDTA then put in the stove for 30 min. The action of the trypsin is stopped with 10% of decomplemented foetal calf serum (200 μl). The serum and the trypsin are removed then the cells are dissociated with a pipette in 10 ml of medium (MEM 225 ml+FCS-D 25 ml+glucose 20% 7.5 ml) (MEM=minimum essential medium; FCS-D=decomplemented foetal calf serum). The culture medium is made up to 30 ml, stirred and placed at 400 μl per well. The medium is changed twice weekly for 18 days. The last replacement is effected 4 days prior to the treatment, with a medium without decomplemented foetal calf serum. (MEM 31.5 ml+glucose 20% 1.05 ml).
# Treatment takes place on the 18th or 19th day.
# Each well is washed with 750 μl of buffer (NaCl 124 mM, KCl 4.6 mM, CaCl2 1.2 mM, MgCl2 1.3 mM, KH2PO4 0.416 mM, NaHCO3 26.75 mM, glucose 10 mM; pH 7.4) for 10 min. The cells are incubated in the presence of xanthine (500 μM) and of the test product (from 0 to 1 mM). After 10 min, xanthine oxidase is added (50 mU/ml) and it is again left to incubate for 10 min. Release of radicals is stopped by washing 3 times with catalase (3000 U/ml). The glutamate is then recaptured in a solution of radioactive glutamate (^3H) at 40 μM (isotopic dilution 1/20000). Recapture is stopped by washing 3 times with the cold buffer. The cells are detached with soda 0.2N and the radioactivity is measured.
# Firstly we checked that the inhibition of recapture observed in the presence of X/XO is indeed due to a radical process. For this we replaced the test products with two enzymes: SOD (SuperOxide Dismutase) and catalase (FIG. 1). […] The Fenton reaction converting hydrogen peroxide to OH• is thus short-circuited. […] However, as there seems to be sufficient reducing agent in the medium to promote the formation of H2O2 starting from O2^•^−, it appears likely that a substantial proportion of H2O2 gives OH• (a highly reactive radical).
# FIGS. 3 to 8 are the mean of at least 4 independent tests in which the protective power of IC180, IC023, IC241, IC2-16, IC178, IC140, IC209, IC237, IC146, IC193, IC194, IC242, IC207, IC2-19, IC219, IC2-21, and IC249, as a function of the dose, was tested against a fixed concentration of radicals, and therefore of X/XO. In the case of IC180, the increase in recapture appears to be linear (up to 100% is found in some tests). […] Since IC023 alone only becomes “toxic” starting from 1 mM, the variation observed starting from 0.6 mM might reflect the existence of metabolites that are poorly tolerated by the cells. The derivative morpholine IC180 is more interesting.
# [2] = product at 100 μM, UV at 290 nm
# [3] = product at 500 μM, UV at 290 nm
# Sequence of xanthine oxidase (P47989 whole entry, species assumed): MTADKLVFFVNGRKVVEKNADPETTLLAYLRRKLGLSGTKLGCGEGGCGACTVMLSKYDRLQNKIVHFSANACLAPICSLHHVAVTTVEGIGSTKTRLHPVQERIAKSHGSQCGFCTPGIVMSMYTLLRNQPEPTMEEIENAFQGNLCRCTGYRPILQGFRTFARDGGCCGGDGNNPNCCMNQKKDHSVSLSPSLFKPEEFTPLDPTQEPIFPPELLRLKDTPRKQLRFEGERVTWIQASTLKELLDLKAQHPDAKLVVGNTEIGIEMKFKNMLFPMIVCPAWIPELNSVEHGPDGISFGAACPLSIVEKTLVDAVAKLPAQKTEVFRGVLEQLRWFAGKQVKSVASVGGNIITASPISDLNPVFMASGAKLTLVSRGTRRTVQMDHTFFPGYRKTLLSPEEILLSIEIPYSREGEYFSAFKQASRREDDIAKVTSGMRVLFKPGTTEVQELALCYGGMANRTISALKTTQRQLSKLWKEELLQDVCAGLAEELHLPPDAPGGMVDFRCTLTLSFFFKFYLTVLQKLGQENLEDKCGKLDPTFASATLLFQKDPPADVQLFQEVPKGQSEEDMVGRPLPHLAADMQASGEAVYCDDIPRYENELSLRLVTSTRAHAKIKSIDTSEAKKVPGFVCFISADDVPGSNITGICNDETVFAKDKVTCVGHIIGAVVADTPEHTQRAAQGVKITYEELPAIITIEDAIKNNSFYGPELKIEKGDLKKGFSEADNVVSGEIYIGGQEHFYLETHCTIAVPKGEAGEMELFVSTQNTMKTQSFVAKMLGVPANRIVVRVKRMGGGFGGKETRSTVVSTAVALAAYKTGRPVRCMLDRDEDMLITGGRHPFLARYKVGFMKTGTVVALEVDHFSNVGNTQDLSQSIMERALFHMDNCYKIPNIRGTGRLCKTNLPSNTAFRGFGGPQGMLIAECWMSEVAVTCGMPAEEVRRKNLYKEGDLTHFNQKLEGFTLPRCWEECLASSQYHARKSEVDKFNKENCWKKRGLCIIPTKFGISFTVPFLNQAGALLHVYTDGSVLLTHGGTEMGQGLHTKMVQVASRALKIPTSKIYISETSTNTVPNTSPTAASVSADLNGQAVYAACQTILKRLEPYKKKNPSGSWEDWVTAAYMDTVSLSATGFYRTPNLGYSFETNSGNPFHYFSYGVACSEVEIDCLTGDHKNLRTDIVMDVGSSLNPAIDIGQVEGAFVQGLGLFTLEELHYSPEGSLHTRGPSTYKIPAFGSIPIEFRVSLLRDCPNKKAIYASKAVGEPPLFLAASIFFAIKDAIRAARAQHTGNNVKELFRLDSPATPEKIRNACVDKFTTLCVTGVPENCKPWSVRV
molecule,measurement,setting,value
"Oc1ncnc2[nH]ncc12 [Allopurinol, reference compound]",inhibition at 100 µM,xanthine oxidase,92%
same,inhibition at 500 µM,xanthine oxidase,90%
"O=C[C@@H](O)[C@@H](O)[C@H](O)[C@H](O)CO [D-mannose, reference compound]",ks (10^−9M^−1 sec^−1) (±SEM),[1],0.94±0.06 10^−9M^−1 sec^−1
Cl.c1cc2c(s1)C(N1CCOCC1)CCC2 (stereo not drawn) [IC2-16],ks (10^−9M^−1 sec^−1) (±SEM),[1],3.33 ± 0.15 10^−9M^−1 sec^−1
"c1cc2c(s1)CCCC2N1CCCCC1 (stereo not drawn) [IC023, piperidino-4-tetrahydro-4,5,6,7-benzothiophene]",inhibition at 100 µM,xanthine oxidase,-6%
same,% recapture from which the opposite effect is observed,astrocytes; fixed concentration of X/XO,≥ 15%
same,concentration from which the variation (opposite effect) is observed,astrocytes; in presence of X/XO,≥ 0.6 mM
same,"concentration from which the product alone becomes ""toxic""","astrocytes; product alone, astrocytes",≥ 1000 µM
same,ks (10^−9M^−1 sec^−1) (±SEM),[1],3.61 ± 0.16 10^−9M^−1 sec^−1
"Cl.NC1CCCc2sccc21 (stereo not drawn) [IC088, amino-4-tetrahydro-4,5,6,7-benzothiophene]",inhibition at 100 µM,xanthine oxidase; [2],-15%
same,ks (10^−9M^−1 sec^−1) (±SEM),[1],3.37 ± 0.25 10^−9M^−1 sec^−1
"Cl.NC1CCCc2ccsc21 (stereo not drawn) [IC178, amino-7-tetrahydro-4,5,6,7-benzothiophene]",ks (10^−9M^−1 sec^−1) (±SEM),[1],2.76 ± 0.06 10^−9M^−1 sec^−1
"Cl.c1cc2c(s1)CCCC2N1CCSCC1 (stereo not drawn) [IC193, thiomorpholine-4-tetrahydro-4,5,6,7-benzothiophene]",inhibition at 100 µM,xanthine oxidase; [2],-7%
same,inhibition at 500 µM,xanthine oxidase; [3],-2%
same,ks (10^−9M^−1 sec^−1) (±SEM),[1],3.41 ± 0.25 10^−9M^−1 sec^−1
"CN1CCN(C2CCCc3sccc32)CC1 (stereo not drawn) [IC194, N-methyl-piperazine-4-tetrahydro-4,5,6,7-benzothiophene]",inhibition at 100 µM,xanthine oxidase; [2],-15%
same,inhibition at 500 µM,xanthine oxidase; [3],10%
same,ks (10^−9M^−1 sec^−1) (±SEM),[1],3.50 ± 0.23 10^−9M^−1 sec^−1
"Cl.OC1CCN(C2CCCc3sccc32)CC1 (stereo not drawn) [IC209, (4 hydroxy-piperidine)-4-tetrahydro-4,5,6,7-benzothiophene]",ks (10^−9M^−1 sec^−1) (±SEM),[1],3.27 ± 0.50 10^−9M^−1 sec^−1
"Cl.c1cc2c(s1)SCCC2N1CCCCC1 (stereo not drawn) [IC237, piperidino-4-tetrahydro-4,5,6,7-thio-7-benzothiophene]",inhibition at 100 µM,xanthine oxidase,-9%
same,inhibition at 500 µM,xanthine oxidase,-8%
same,ks (10^−9M^−1 sec^−1) (±SEM),[1],3.45 ± 0.19 10^−9M^−1 sec^−1
"Cl.c1cc2c(s1)SCCC2N1CCOCC1 (stereo not drawn) [IC241, morpholine-4 tetrahydro-4,5,6,7-thio-7-benzothiophene]",inhibition at 100 µM,xanthine oxidase; [2],7%
same,inhibition at 500 µM,xanthine oxidase; [3],-8%
same,ks (10^−9M^−1 sec^−1) (±SEM),[1],3.01 ± 0.14 10^−9M^−1 sec^−1
"CN1CCN(C2CCSc3sccc32)CC1 (stereo not drawn) [IC242, (N-methyl piperazine)-4-tetrahydro-4,5,6,7-thio-7-benzothiophene]",ks (10^−9M^−1 sec^−1) (±SEM),[1],3.00 ± 0.19 10^−9M^−1 sec^−1
"O=C(O)c1ccccc1O [ac.salicyl., salicylic acid, reference compound]",ks (10^−9M^−1 sec^−1) (±SEM),[1],3.02 ± 0.18 10^−9M^−1 sec^−1
same,ks (10^−9M^−1 sec^−1) (±SEM),[1]; listed as salicylic acid,3.02±0.18 10^−9M^−1 sec^−1
"O=C1O[C@H]([C@@H](O)CO)C(O)=C1O [vitamin C, reference compound]",ks (10^−9M^−1 sec^−1) (±SEM),[1],1.87±0.17 10^−9M^−1 sec^−1
catalase,recapture of glutamate with enzyme in place of test product (in words),"astrocytes; in presence of X/XO, control, FIG. 1",allows a normal degree of recapture to be attained
